Reference: ChEMBL document CHEMBL2016576, “Design, synthesis and structure-activity-relationship of 1,5-tetrahydronaphthyridines as CETP inhibitors” (Bioorg Med Chem Lett, 2012)

These compounds were tested against T1, Cholesteryl ester transfer protein (Homo sapiens, UniProt P11597) (assay: Inhibition of CETP in human plasma assessed as reduction in fluorescent intensity by fluorescence analysis).
T1 sequence (P11597 whole entry): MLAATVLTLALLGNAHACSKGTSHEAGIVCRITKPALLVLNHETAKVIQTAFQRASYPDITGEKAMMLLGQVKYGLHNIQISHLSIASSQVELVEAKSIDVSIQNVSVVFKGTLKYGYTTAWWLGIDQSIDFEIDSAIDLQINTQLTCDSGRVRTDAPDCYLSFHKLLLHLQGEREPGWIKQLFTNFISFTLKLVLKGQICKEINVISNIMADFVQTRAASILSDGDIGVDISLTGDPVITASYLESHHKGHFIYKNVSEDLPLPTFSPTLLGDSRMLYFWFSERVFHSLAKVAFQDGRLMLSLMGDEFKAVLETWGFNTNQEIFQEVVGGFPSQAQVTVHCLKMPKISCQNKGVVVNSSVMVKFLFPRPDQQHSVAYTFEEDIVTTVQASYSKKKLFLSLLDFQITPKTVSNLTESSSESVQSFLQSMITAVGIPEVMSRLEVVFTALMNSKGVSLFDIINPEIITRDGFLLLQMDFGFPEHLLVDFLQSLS
Work on CCC1CC(N(Cc2cc(C(F)(F)F)cc(C(F)(F)F)c2)C(C)=O)c2sccc2N1C(=O)OC(C)C (stereo not given) yielded an IC50 of 46000 nM.
CCC1CC(N(Cc2cc(C(F)(F)F)cc(C(F)(F)F)c2)C(C)=O)c2ccc(C)nc2N1C(=O)OC(C)C (stereo not given) was tested, and the IC50 was 44100 nM.
With CC[C@H]1C[C@@H](N(Cc2cc(C(F)(F)F)cc(C(F)(F)F)c2)c2nnn(C)n2)c2nc(C(F)(F)F)ccc2N1C(=O)OC(C)C the IC50 was 7420 nM.
For CC[C@H]1C[C@@H](N(Cc2cc(C(F)(F)F)cc(C(F)(F)F)c2)c2nnn(C)n2)c2nc(C)ccc2N1C(=O)OC(C)C, the IC50 was 50000 nM.
In the case of CC[C@@H]1C[C@H](N(Cc2cc(C(F)(F)F)cc(C(F)(F)F)c2)c2nnn(C)n2)c2nc(N(C)C)ccc2N1C(=O)OC(C)C, the IC50 is reported as 31 nM.
In the case of CC[C@@H]1C[C@H](N(Cc2cc(C(F)(F)F)cc(C(F)(F)F)c2)c2nnn(C)n2)c2nc(N)ccc2N1C(=O)OC(C)C, the IC50 is reported as 98 nM.
CC[C@@H]1C[C@H](N(Cc2cc(C(F)(F)F)cc(C(F)(F)F)c2)c2nnn(C)n2)c2nc(NC)ccc2N1C(=O)OC(C)C gave an IC50 of 142 nM.
CCNc1ccc2c(n1)[C@@H](N(Cc1cc(C(F)(F)F)cc(C(F)(F)F)c1)c1nnn(C)n1)C[C@@H](CC)N2C(=O)OC(C)C showed an IC50 of 591 nM.
Work on CC[C@@H]1C[C@H](N(Cc2cc(C(F)(F)F)cc(C(F)(F)F)c2)c2nnn(C)n2)c2nc(N3CCCC3)ccc2N1C(=O)OC(C)C yielded an IC50 of 471 nM.
Work on CC[C@@H]1C[C@H](N(Cc2cc(C(F)(F)F)cc(C(F)(F)F)c2)c2nnn(C)n2)c2nc(N3CCOCC3)ccc2N1C(=O)OC(C)C yielded an IC50 of 25000 nM.
With CC[C@@H]1C[C@H](N(Cc2cc(C(F)(F)F)cc(C(F)(F)F)c2)c2nnn(C)n2)c2nc(N3CCNCC3)ccc2N1C(=O)OC(C)C the IC50 was > 50000 nM.
CC[C@@H]1C[C@H](N(Cc2cc(Cl)cc(C(F)(F)F)c2)c2nnn(C)n2)c2nc(C(F)(F)F)ccc2N1C(=O)OC(C)C showed an IC50 of 20 nM.
In the case of CC[C@@H]1C[C@H](N(Cc2cc(Cl)cc(C(F)(F)F)c2)c2nnn(C)n2)c2nc(C)ccc2N1C(=O)OC(C)C, the IC50 is reported as 12 nM.
For CC[C@@H]1C[C@H](N(Cc2cc(C#N)cc(C(F)(F)F)c2)c2nnn(C)n2)c2nc(C)ccc2N1C(=O)OC(C)C, the IC50 was 21 nM.
For CC[C@@H]1C[C@H](N(Cc2cc(F)cc(C(F)(F)F)c2)c2nnn(C)n2)c2nc(C)ccc2N1C(=O)OC(C)C, the IC50 was 30 nM.
For CC[C@@H]1C[C@H](N(Cc2cc(Cl)cc(Cl)c2)c2nnn(C)n2)c2nc(C)ccc2N1C(=O)OC(C)C, the IC50 was 24 nM.
CC[C@@H]1C[C@H](N(Cc2cc(Cl)cc(Cc3cncc(C(F)(F)F)c3)c2)c2nnn(C)n2)c2nc(C(F)(F)F)ccc2N1C(=O)OC(C)C showed an IC50 of 207 nM.
For CC[C@@H]1C[C@H](N(Cc2cc(C(F)(F)F)cc(C(F)(F)F)c2)c2nnn(C)n2)c2nc(C(F)(F)F)ccc2N1C(=O)OC, the IC50 was 197 nM.
CCOC(=O)N1c2ccc(C(F)(F)F)nc2[C@@H](N(Cc2cc(C(F)(F)F)cc(C(F)(F)F)c2)c2nnn(C)n2)C[C@H]1CC gave an IC50 of 29 nM.
In the case of CC[C@@H]1C[C@H](N(Cc2cc(C(F)(F)F)cc(C(F)(F)F)c2)c2nnn(C)n2)c2nc(C(F)(F)F)ccc2N1C(=O)OCCO, the IC50 is reported as 108 nM.
In the case of CC[C@@H]1C[C@H](N(Cc2cc(C(F)(F)F)cc(C(F)(F)F)c2)c2nnn(C)n2)c2nc(C(F)(F)F)ccc2N1C(=O)OCC(C)(C)C(=O)O, the IC50 is reported as 139 nM.
With CC[C@@H]1C[C@H](N(Cc2cc(C(F)(F)F)cc(C(F)(F)F)c2)c2nnn(C)n2)c2nc(C(F)(F)F)ccc2N1C(=O)OCCN(C)C the IC50 was 572 nM.
CC[C@@H]1C[C@H](N(Cc2cc(C(F)(F)F)cc(C(F)(F)F)c2)c2nnn(C)n2)c2nc(C(F)(F)F)ccc2N1C(=O)OC1CCOCC1 was tested, and the IC50 was 66 nM.
CC[C@@H]1C[C@H](N(Cc2cc(C(F)(F)F)cc(C(F)(F)F)c2)c2nnn(C)n2)c2nc(C(F)(F)F)ccc2N1C(=O)OC1CCN(C)CC1 showed an IC50 of 72 nM.
With CC[C@@H]1C[C@H](N(Cc2cc(C(F)(F)F)cc(C(F)(F)F)c2)c2nnn(C)n2)c2nc(C(F)(F)F)ccc2N1C(=O)OCCc1nn[nH]n1 the IC50 was 488 nM.
CC[C@@H]1C[C@H](N(Cc2cc(C(F)(F)F)cc(C(F)(F)F)c2)c2nnn(C)n2)c2nc(C(F)(F)F)ccc2N1C(=O)OCCN1CCOCC1 was tested, and the IC50 was 2110 nM.
CC[C@@H]1C[C@H](N(Cc2cc(C(F)(F)F)cc(C(F)(F)F)c2)c2nnn(C)n2)c2nc(C(F)(F)F)ccc2N1C(=O)OCCN1CCN(C)CC1 showed an IC50 of 5730 nM.
For CC[C@@H]1C[C@H](N(Cc2cc(C(F)(F)F)cc(C(F)(F)F)c2)c2nnn(C)n2)c2nc(C(F)(F)F)ccc2N1C(=O)C(C)C, the IC50 was 55 nM.
In the case of CCCC(=O)N1c2ccc(C(F)(F)F)nc2[C@@H](N(Cc2cc(C(F)(F)F)cc(C(F)(F)F)c2)c2nnn(C)n2)C[C@H]1CC, the IC50 is reported as 114 nM.
For CC[C@@H]1C[C@H](N(Cc2cc(C(F)(F)F)cc(C(F)(F)F)c2)c2nnn(C)n2)c2nc(C(F)(F)F)ccc2N1C(=O)c1c(C)cnn1C, the IC50 was 193 nM.
CC[C@@H]1C[C@H](N(Cc2cc(C(F)(F)F)cc(C(F)(F)F)c2)c2nnn(C)n2)c2nc(C(F)(F)F)ccc2N1CC(C)C was tested, and the IC50 was 205 nM.
CC[C@@H]1C[C@H](N(Cc2cc(C(F)(F)F)cc(C(F)(F)F)c2)c2nnn(C)n2)c2nc(C(F)(F)F)ccc2N1CCC(C)C gave an IC50 of 825 nM.
CC[C@@H]1C[C@H](N(Cc2cc(C(F)(F)F)cc(C(F)(F)F)c2)C(C)=O)c2nc(OC)ccc2N1C(=O)OC(C)C (racemic) was tested, and the IC50 was 487 nM.
Compound CC[C@@H]1C[C@H](N(Cc2cc(C(F)(F)F)cc(C(F)(F)F)c2)C(C)=O)c2nc(C(F)(F)F)ccc2N1C(=O)OC(C)C (racemic) has an IC50 of 396 nM.
For CC[C@@H]1C[C@H](N(Cc2cc(C(F)(F)F)cc(C(F)(F)F)c2)C(C)=O)c2nc(Br)ccc2N1C(=O)OC(C)C (racemic), the IC50 was 1300 nM.
For CC[C@@H]1C[C@H](N(Cc2cc(C(F)(F)F)cc(C(F)(F)F)c2)C(C)=O)c2nc(C)ccc2N1C(=O)OC(C)C (racemic), the IC50 was 980 nM.
Compound CC[C@@H]1C[C@H](N(Cc2cc(C(F)(F)F)cc(C(F)(F)F)c2)C(C)=O)c2nc(N(C)C)ccc2N1C(=O)OC(C)C (racemic) has an IC50 of 948 nM.
Compound CC(=O)N(Cc1cc(C(F)(F)F)cc(C(F)(F)F)c1)[C@H]1C[C@@H](C)N(C(=O)OC(C)C)c2ccc(C(F)(F)F)nc21 (racemic) has an IC50 of 1050 nM.
CC(=O)N(Cc1cc(C(F)(F)F)cc(C(F)(F)F)c1)[C@H]1C[C@@H](C2CC2)N(C(=O)OC(C)C)c2ccc(C(F)(F)F)nc21 (racemic) showed an IC50 of 980 nM.
With CC[C@@H]1C[C@H](N(C#N)Cc2cc(C(F)(F)F)cc(C(F)(F)F)c2)c2nc(C(F)(F)F)ccc2N1C(=O)OC(C)C (racemic) the IC50 was > 5000 nM.
Work on CC[C@@H]1C[C@H](N(Cc2cc(C(F)(F)F)cc(C(F)(F)F)c2)c2noc(C)n2)c2nc(C(F)(F)F)ccc2N1C(=O)OC(C)C (racemic) yielded an IC50 of 74 nM.
CC[C@@H]1C[C@H](N(Cc2cc(C(F)(F)F)cc(C(F)(F)F)c2)c2cc(C)n[nH]2)c2nc(C(F)(F)F)ccc2N1C(=O)OC(C)C (racemic) gave an IC50 of 203 nM.
For CC[C@@H]1C[C@H](N(Cc2cc(C(F)(F)F)cc(C(F)(F)F)c2)c2cc(C)no2)c2nc(C(F)(F)F)ccc2N1C(=O)OC(C)C (racemic), the IC50 was 154 nM.
For CC[C@@H]1C[C@H](N(Cc2cc(C(F)(F)F)cc(C(F)(F)F)c2)c2nnn[nH]2)c2nc(C(F)(F)F)ccc2N1C(=O)OC(C)C (racemic), the IC50 was > 50000 nM.
In the case of CC[C@@H]1C[C@H](N(Cc2cc(C(F)(F)F)cc(C(F)(F)F)c2)c2nnnn2C)c2nc(C(F)(F)F)ccc2N1C(=O)OC(C)C (racemic), the IC50 is reported as > 50000 nM.
CC[C@@H]1C[C@H](N(Cc2cc(C(F)(F)F)cc(C(F)(F)F)c2)c2nnn(C)n2)c2nc(C(F)(F)F)ccc2N1C(=O)OC(C)C (racemic) showed an IC50 of 49 nM.
With CC[C@@H]1C[C@H](N(Cc2cc(C(F)(F)F)cc(C(F)(F)F)c2)c2nnn(C)n2)c2nc(OC)ccc2N1C(=O)OC(C)C (racemic) the IC50 was 134 nM.
Work on CC[C@@H]1C[C@H](N(Cc2cc(C(F)(F)F)cc(C(F)(F)F)c2)c2nnn(C)n2)c2nc(Br)ccc2N1C(=O)OC(C)C (racemic) yielded an IC50 of 47 nM.
CC[C@@H]1C[C@H](N(Cc2cc(C(F)(F)F)cc(C(F)(F)F)c2)c2nnn(C)n2)c2nc(C)ccc2N1C(=O)OC(C)C (racemic) gave an IC50 of 61 nM.
CC[C@@H]1C[C@H](N(Cc2cc(C(F)(F)F)cc(C(F)(F)F)c2)c2nnn(CCN)n2)c2nc(C(F)(F)F)ccc2N1C(=O)OC(C)C (racemic) showed an IC50 of 66 nM.
In the case of CC[C@@H]1C[C@H](N(Cc2cc(C(F)(F)F)cc(C(F)(F)F)c2)c2nnn(CCO)n2)c2nc(C(F)(F)F)ccc2N1C(=O)OC(C)C (racemic), the IC50 is reported as 44 nM.
Compound CC[C@@H]1C[C@H](N(Cc2cc(C(F)(F)F)cc(C(F)(F)F)c2)c2nnn(C)n2)c2nc(OC)c(C)cc2N1C(=O)OC(C)C (racemic) has an IC50 of 38.4 nM.
With CC[C@@H]1C[C@H](N(Cc2cc(C(F)(F)F)cc(C(F)(F)F)c2)c2nnn(C)n2)c2nc(N)c(C)cc2N1C(=O)OC(C)C (racemic) the IC50 was 106 nM.
CCOC(=O)N1c2c(C)cc(C(F)(F)F)nc2[C@@H](N(Cc2cc(C(F)(F)F)cc(C(F)(F)F)c2)c2nnn(C)n2)C[C@H]1CC (racemic) showed an IC50 of 24 nM.
Compound Cc1cc(C)c2c(c1)[C@@H](N(Cc1cc(C(F)(F)F)cc(C(F)(F)F)c1)c1nnn(C)n1)CCCN2C[C@H]1CC[C@H](C(=O)O)CC1 [EVACETRAPIB] has an IC50 of 26 nM.
